Assay results taken from patent US20120283216A1, “FUNGICIDAL 2-(BICYCLIC ARYLOXY)CARBOXAMIDES” (priority 2009, published 2012).

Assays:
Assay type in all cases: in vivo
[1] = tested on: Blumeria graminis f. sp. tritici; assay: Test A: wheat powdery mildew, preventive spray on wheat seedlings, visual disease rating; details: preventive spray at 40 ppm, rated 8 days after inoculation; for pest or weed control at 40 ppm: Blumeria graminis, 192 h, read-out: Test A disease control rating (100 = 100% disease control, 0 = no disease control relative to the controls)
Summary of the method: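 Wheat seedlings sprayed to run-off with 40 ppm compound (equivalent to 800 g/ha) in acetone/water with 250 ppm surfactant, then dusted with B. graminis spores next day. Held at 20° C. for 8 days before visual rating, 0–100 scale as % disease control relative to controls.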

[2] = tested on: Botrytis cinerea; assay: Test C: tomato botrytis, preventive spray on tomato seedlings, visual disease rating; details: preventive spray at 40 ppm, rated after 48 h + 3 days; for pest or weed control at 40 ppm: Botrytis cinerea, 120 h, read-out: Test C disease control rating (100 = 100% disease control, 0 = no disease control relative to the controls)
Summary of the method: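 Compounds applied at 40 ppm (≈800 g/ha) in acetone/water with surfactant, sprayed to run-off on tomato seedlings. Inoculated next day with B. cinerea spores; 48 h saturated humidity at 20 °C, then 3 days at 27 °C. Visual rating as % disease control versus untreated controls.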

[3] = tested on: Septoria tritici; assay: Test B: wheat leaf blotch, preventive spray on wheat seedlings, visual disease rating; details: preventive spray at 40 ppm, rated after 48 h + 19 days; for pest or weed control at 40 ppm: Zymoseptoria tritici, 504 h, read-out: Test B disease control rating (100 = 100% disease control, 0 = no disease control relative to the controls)
Summary of the method: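 Wheat seedlings were sprayed to run-off with 40 ppm compound (≈800 g/ha) in acetone/water with 250 ppm surfactant, then inoculated with Septoria tritici spores the next day. After 48 h saturated humidity at 20° C and 19 days in a growth chamber at 20° C, disease control was rated visually (0–100% vs controls).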

Row | SMILES | Test A disease control rating (100 = 100% disease control, 0 = no disease control relative to the controls) [1] | Test C disease control rating (100 = 100% disease control, 0 = no disease control relative to the controls) [2] | Test B disease control rating (100 = 100% disease control, 0 = no disease control relative to the controls) [3] | pest or weed control at 40 ppm [1] | pest or weed control at 40 ppm [2] | pest or weed control at 40 ppm [3]
1 | CCC(Oc1cnc2ccc(OC)cc2c1)C(=O)NC(C)(C)COC (stereo not drawn) [Compound 146] | 0% | 99% | 100% | – | – | –
2 | C#CC(C)(C)NC(=O)C(CC)Oc1cnc2ccc(OC)cc2c1 (stereo not drawn) [Compound 147] | 0% | 99% | 99% | – | – | –
3 | C#Cc1ccc2ncc(OC(CC)C(=O)NC(C)(C)C)cc2c1 (stereo not drawn) [Compound 149] | 100% | 98% | 100% | – | – | –
4 | C#Cc1ccc2ncc(OC(CC)C(=O)NC(C)(C)CC)cc2c1 (stereo not drawn) [Compound 150] | 96% | 97% | 100% | – | – | –
5 | C#Cc1ccc2ncc(OC(CC)C(=O)NC(C)(C)C#C)cc2c1 (stereo not drawn) [Compound 151] | 99% | 96% | 100% | – | – | –
6 | C#Cc1ccc2ncc(OC(CC)C(=O)NC(C)(C)C#N)cc2c1 (stereo not drawn) [Compound 152] | 88% | 94% | 100% | – | – | –
7 | C#Cc1ccc2ncc(OC(CC)C(=O)NCC(C)(C)C)cc2c1 (stereo not drawn) [Compound 153] | 0% | 93% | 92% | – | – | –
8 | COCC(C)(C)NC(=O)C(OC)Oc1cnc2ccc(Br)cc2c1 (stereo not drawn) [Compound 154] | 91% | 94% | 99% | – | – | –
9 | CC#Cc1ccc2ncc(OC(OC)C(=O)NC(C)(C)C)cc2c1 (stereo not drawn) [Compound 156, N-(1,1-dimethylethyl)-2-methoxy-2-[[6-(1-propyn-1-yl)-3-quinolinyl]oxy]-acetamide] | – | – | – | 98% | 99% | 96%
10 | CC#Cc1ccc2ncc(OC(OC)C(=O)NC(C)(C)COC)cc2c1 (stereo not drawn) [Compound 158] | 98% | 99% | 38% | – | – | –
11 | CCC(Oc1ccc2ccc(C)cc2c1)C(=O)NC(C)(C)COC (stereo not drawn) [Compound 159, N-(2-methoxy-1,1-dimethylethyl)-2-[(7-methyl-2-naphthalenyl)oxy]-butanamide] | – | – | – | 99% | 99% | 13%
12 | COCC(C)(C)NC(=O)C(OC)Oc1cnc2ccc(C#C[Si](C)(C)C)cc2c1 (stereo not drawn) [Compound 160] | 69% | 97% | 99% | – | – | –
13 | COC(Oc1cnc2ccc(C#C[Si](C)(C)C)cc2c1)C(=O)NC(C)(C)C (stereo not drawn) [Compound 161] | 0% | 99% | 100% | – | – | –
14 | C#Cc1ccc2ncc(OC(OC)C(=O)NC(C)(C)COC)cc2c1 (stereo not drawn) [Compound 162] | 100% | 100% | 100% | – | – | –
15 | C#Cc1ccc2ncc(OC(OC)C(=O)NC(C)(C)C)cc2c1 (stereo not drawn) [Compound 163] | 99% | 100% | 100% | – | – | –
16 | C#CC(C)(C)NC(=S)C(CC)Oc1ccc2ccc(OC)cc2c1 (stereo not drawn) [Compound 164] | – | – | – | 0% | 99% | 97%
17 | CCC(Oc1ccc2ccc(OC)cc2c1)C(=O)N(C)C(C)(C)C (stereo not drawn) [Compound 166] | – | – | – | 0% | 99% | 46%
18 | CCC(Oc1ccc2ccc(OC)cc2c1)C(=O)N(CC)C(C)(C)C (stereo not drawn) [Compound 167] | – | – | – | 0% | 68% | 64%
